19 compounds from ChEMBL document CHEMBL5291721, “A preclinical secondary pharmacology resource illuminates target-adverse drug reaction associations of marketed drugs” (Nat Commun, 2023) can be followed below.

For experiment [1], the target named is Growth hormone secretagogue receptor type 1 (Homo sapiens, UniProt Q92847).
In experiment [2] the target is T1, Prostaglandin G/H synthase 1 (Rattus norvegicus, UniProt Q63921).
T1 sequence (Q63921 whole entry): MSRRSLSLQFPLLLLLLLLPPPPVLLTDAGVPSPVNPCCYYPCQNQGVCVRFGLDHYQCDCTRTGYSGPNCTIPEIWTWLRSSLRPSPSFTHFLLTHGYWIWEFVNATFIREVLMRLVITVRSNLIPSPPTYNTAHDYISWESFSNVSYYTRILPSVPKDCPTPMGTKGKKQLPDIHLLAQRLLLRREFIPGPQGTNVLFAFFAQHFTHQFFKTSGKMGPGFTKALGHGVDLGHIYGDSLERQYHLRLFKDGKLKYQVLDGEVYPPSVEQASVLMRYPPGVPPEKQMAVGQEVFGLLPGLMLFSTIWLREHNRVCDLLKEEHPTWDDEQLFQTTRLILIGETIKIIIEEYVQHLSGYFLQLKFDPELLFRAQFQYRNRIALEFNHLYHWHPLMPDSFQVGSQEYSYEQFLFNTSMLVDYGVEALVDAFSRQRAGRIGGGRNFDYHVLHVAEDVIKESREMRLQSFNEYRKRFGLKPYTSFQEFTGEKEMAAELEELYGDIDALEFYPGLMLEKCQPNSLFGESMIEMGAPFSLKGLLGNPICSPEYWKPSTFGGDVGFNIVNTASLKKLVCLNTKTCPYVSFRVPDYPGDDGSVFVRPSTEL
It counts as functional.

In experiment [3] the target is T2, Amine oxidase [flavin-containing] A (Homo sapiens, UniProt P21397).
T2 sequence (P21397 whole entry): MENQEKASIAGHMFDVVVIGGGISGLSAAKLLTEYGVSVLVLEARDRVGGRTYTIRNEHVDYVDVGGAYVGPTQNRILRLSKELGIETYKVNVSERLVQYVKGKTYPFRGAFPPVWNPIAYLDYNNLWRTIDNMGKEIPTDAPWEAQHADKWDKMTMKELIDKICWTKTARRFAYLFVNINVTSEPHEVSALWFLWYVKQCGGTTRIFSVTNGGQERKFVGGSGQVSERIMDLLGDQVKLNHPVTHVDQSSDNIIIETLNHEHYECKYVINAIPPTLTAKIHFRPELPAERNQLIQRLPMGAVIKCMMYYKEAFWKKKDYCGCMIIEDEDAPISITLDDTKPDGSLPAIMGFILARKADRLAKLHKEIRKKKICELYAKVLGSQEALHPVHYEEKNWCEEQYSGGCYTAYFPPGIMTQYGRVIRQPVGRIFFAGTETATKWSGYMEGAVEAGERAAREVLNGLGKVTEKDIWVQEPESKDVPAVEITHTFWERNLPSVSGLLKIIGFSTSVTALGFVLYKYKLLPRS
It counts as functional.

The target in experiment [4] is T3, Equilibrative nucleoside transporter 1 (Homo sapiens, UniProt Q99808).
T3 sequence (Q99808 whole entry): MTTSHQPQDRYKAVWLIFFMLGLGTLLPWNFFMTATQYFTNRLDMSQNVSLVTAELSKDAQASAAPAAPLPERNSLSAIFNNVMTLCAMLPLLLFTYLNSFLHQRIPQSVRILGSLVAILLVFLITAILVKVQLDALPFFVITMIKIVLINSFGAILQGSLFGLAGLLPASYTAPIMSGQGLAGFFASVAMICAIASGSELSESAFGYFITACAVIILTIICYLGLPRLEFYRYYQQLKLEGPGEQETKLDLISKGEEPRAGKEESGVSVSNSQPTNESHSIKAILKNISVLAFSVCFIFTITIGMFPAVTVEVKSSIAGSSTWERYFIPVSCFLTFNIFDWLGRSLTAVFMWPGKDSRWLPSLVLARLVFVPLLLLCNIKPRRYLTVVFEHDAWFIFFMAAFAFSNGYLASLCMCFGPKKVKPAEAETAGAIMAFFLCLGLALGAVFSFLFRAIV

In experiment [5] the target is T4, Adenosine receptor A3 (Homo sapiens, UniProt P0DMS8).
T4 sequence (P0DMS8 whole entry): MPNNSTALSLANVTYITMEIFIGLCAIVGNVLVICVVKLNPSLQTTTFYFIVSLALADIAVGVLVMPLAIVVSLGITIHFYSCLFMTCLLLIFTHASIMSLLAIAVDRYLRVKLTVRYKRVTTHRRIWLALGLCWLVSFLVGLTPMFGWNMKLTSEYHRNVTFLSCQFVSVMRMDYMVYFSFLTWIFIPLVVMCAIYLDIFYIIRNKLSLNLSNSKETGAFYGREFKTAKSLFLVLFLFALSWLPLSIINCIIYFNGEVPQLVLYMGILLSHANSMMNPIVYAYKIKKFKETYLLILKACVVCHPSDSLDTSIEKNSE

For experiment [6], the target named is Neuronal acetylcholine receptor subunit alpha-4 (Homo sapiens, UniProt P43681).
The target of experiment [7] is T5, Neuropeptide Y receptor type 1 (Homo sapiens, UniProt P25929).
T5 sequence (P25929 whole entry): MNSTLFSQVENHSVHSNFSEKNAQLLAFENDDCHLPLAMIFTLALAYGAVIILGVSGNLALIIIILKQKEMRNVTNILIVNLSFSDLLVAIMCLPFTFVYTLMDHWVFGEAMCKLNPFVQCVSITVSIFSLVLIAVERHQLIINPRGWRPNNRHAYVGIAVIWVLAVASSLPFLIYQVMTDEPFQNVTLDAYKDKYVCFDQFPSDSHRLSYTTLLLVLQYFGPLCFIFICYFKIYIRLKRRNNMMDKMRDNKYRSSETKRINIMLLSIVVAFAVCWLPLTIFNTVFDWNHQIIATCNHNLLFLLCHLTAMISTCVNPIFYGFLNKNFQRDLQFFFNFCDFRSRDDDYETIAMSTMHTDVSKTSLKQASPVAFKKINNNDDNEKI
To be noted: read-out: AC50.

Experiment [8] addresses 3',5'-cyclic-AMP phosphodiesterase 4D (Homo sapiens, UniProt Q08499). It counts as functional.
Note: assay procedure not described here.

Neuronal acetylcholine receptor subunit alpha-4, sequence (P43681 whole entry): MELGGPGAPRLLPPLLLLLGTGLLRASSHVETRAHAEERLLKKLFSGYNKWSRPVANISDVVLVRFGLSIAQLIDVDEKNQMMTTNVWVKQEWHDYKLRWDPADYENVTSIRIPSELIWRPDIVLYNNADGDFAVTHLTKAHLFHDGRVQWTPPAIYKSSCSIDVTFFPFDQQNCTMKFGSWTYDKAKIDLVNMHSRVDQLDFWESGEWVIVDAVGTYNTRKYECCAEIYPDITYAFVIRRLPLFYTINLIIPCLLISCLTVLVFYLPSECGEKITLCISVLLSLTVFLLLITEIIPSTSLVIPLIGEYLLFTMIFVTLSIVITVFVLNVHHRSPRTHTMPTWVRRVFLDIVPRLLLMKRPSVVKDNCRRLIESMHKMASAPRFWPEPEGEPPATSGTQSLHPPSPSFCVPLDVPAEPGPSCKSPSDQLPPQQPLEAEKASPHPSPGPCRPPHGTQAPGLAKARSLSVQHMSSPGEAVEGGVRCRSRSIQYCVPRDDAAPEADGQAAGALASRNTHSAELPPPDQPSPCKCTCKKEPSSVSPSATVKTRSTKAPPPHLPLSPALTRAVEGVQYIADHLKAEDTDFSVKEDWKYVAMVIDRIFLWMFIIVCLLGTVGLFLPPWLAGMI
Growth hormone secretagogue receptor type 1, sequence (Q92847 whole entry): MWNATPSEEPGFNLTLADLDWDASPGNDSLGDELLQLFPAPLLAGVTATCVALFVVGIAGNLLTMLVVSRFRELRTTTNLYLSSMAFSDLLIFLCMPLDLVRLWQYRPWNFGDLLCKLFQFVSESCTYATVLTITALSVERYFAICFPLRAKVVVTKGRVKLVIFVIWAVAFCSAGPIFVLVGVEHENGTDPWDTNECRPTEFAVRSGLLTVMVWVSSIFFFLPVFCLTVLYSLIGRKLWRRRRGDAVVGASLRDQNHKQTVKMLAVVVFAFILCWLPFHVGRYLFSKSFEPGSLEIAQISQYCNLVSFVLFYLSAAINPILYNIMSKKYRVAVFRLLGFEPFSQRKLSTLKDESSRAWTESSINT
3',5'-cyclic-AMP phosphodiesterase 4D, sequence (Q08499 whole entry): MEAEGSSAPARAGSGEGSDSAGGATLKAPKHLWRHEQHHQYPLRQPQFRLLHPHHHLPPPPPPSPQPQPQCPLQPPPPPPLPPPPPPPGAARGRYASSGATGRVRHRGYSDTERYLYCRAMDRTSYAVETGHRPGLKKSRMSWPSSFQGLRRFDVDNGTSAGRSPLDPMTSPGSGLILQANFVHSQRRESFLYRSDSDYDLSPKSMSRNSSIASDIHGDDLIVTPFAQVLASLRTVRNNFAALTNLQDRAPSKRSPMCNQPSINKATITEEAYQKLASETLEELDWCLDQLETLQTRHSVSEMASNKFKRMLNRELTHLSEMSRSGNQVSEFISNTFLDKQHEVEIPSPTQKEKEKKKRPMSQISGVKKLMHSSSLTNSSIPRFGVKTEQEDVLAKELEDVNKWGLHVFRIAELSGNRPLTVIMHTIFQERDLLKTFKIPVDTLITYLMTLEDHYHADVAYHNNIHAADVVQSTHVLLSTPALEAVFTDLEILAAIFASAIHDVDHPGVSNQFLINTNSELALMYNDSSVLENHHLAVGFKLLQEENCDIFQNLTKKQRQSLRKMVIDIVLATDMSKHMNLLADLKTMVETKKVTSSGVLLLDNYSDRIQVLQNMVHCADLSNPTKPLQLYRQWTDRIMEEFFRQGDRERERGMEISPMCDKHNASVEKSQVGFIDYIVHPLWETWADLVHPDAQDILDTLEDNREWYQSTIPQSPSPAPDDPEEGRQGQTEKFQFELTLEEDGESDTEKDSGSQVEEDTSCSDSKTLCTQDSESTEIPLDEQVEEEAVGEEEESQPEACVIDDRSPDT

As to `Cc1cc2cc3c(C)cc(=O)oc3c(C)c2o1` [TRIOXSALEN], the AC50 in experiment [1] is above 10 µM; in experiment [2] it was above 10 µM; in experiment [3], 0.72 µM; in experiment [4], above 10 µM; in experiment [5], above 30 µM; in experiment [6] it was above 10 µM. In addition, in experiment [7], the AC50 is above 10 µM.

In the case of `Clc1ccc(C(Cn2ccnc2)OCc2ccsc2Cl)c(Cl)c1` (stereo not given) [TIOCONAZOLE], the AC50 in experiment [1] is 8.5 µM; in experiment [8], 8.7 µM; in experiment [2], 12.4 µM; in experiment [3], above 30 µM; in experiment [4], above 30 µM; in experiment [5] it was 6.43 µM. Also, the AC50 in experiment [6] and in experiment [7] was above 30 µM each time.

Regarding `CN1CCN(C2=Nc3ccccc3Oc3ccc(Cl)cc32)CC1` [LOXAPINE], the concentration at half-maximal activity (AC50) was above 30 µM in experiment [1]; above 30 µM in experiment [2]; above 10 µM in experiment [3]; above 30 µM in experiment [4]; above 30 µM in experiment [5]; above 10 µM in experiment [6]. For the same compound, the concentration at half-maximal activity (AC50) in experiment [7] was above 30 µM.

In the case of `Clc1ccc2c(N3CCN(CCCN4CCN(c5ccnc6cc(Cl)ccc56)CC4)CC3)ccnc2c1` [PIPERAQUINE], the AC50 in experiment [1] is above 30 µM; in experiment [8], 22 µM; in experiment [2], above 30 µM; in experiment [3], above 30 µM; in experiment [4], above 30 µM; in experiment [5], above 30 µM. Further, the AC50 in experiment [6] and in experiment [7] was above 30 µM throughout.

Regarding `CNCc1ccc(-c2[nH]c3cc(F)cc4c3c2CCNC4=O)cc1` [RUCAPARIB], the AC50 was above 30 µM in experiment [1]; 10 µM in experiment [8]; above 30 µM in experiment [2]; above 10 µM in experiment [3]; above 30 µM in experiment [4]; above 30 µM in experiment [6]. Moreover, in experiment [7], the AC50 is above 30 µM.

Take `CC12CC3CC(C)(C1)CC(N)(C3)C2` [MEMANTINE]: the AC50 in experiment [1] is above 30 µM; in experiment [8], above 30 µM; in experiment [2] it was above 30 µM; in experiment [3], above 10 µM; in experiment [4], above 30 µM; in experiment [5] it was above 30 µM. The results for the AC50 in experiment [6] and in experiment [7] were above 10 µM and above 30 µM, respectively.

As for `CN1CCC(=C2c3ccccc3CCc3cccnc32)CC1` [AZATADINE], the AC50 is above 30 µM in experiment [1]; above 30 µM in experiment [8]; above 30 µM in experiment [2]; above 10 µM in experiment [3]; above 30 µM in experiment [4]; above 30 µM in experiment [5]. Also, the AC50 in experiment [6] is above 10 µM; in experiment [7], above 30 µM.

`O=[N+]([O-])c1ccc(O)c2ncccc12` [NITROXOLINE]: the values for the AC50 in experiment [8] and in experiment [3] were 3.2 µM and above 30 µM, respectively.

On to `CC[C@@H]([C@H](C)O)n1ncn(-c2ccc(N3CCN(c4ccc(OC[C@@H]5CO[C@@](Cn6cncn6)(c6ccc(F)cc6F)C5)cc4)CC3)cc2)c1=O` [POSACONAZOLE], for which the AC50 in experiment [8], in experiment [2], in experiment [3] and in experiment [5] was above 30 µM each time.

For `Cc1cccc(N2CC(CO)OC2=O)c1` (stereo not given) [TOLOXATONE], the AC50 in experiment [1], in experiment [8], in experiment [2], in experiment [5], in experiment [6] and in experiment [7] was above 30 µM throughout.

With `O=C(O)c1cn(C2CC2)c2cc(N3CCNCC3)c(F)cc2c1=O` [CIPROFLOXACIN], the AC50 in experiment [1], in experiment [8], in experiment [4], in experiment [5] and in experiment [7] was above 30 µM in each case.

As for `CC(=O)N[C@@H](CS)C(=O)O` [ACETYLCYSTEINE], the concentration at half-maximal activity (AC50) in experiment [1], in experiment [8], in experiment [3], in experiment [4], in experiment [5] and in experiment [6] was above 30 µM throughout. In addition, the AC50 in experiment [7] is above 30 µM.

With `CCC(C)C1(CC)C(=O)NC(=O)NC1=O` (stereo not given) [BUTABARBITAL], the AC50 in experiment [1], in experiment [8], in experiment [2], in experiment [3], in experiment [4] and in experiment [5] was above 30 µM throughout. Further, in experiment [6], the AC50 is above 30 µM.

For the compound `CNC1=Nc2ccc(Cl)cc2C(c2ccccc2)=[N+]([O-])C1` [CHLORDIAZEPOXIDE], the concentration at half-maximal activity (AC50) in experiment [1] is above 30 µM; in experiment [8], above 10 µM; in experiment [2] it was above 30 µM; in experiment [3], above 10 µM; in experiment [4], above 30 µM; in experiment [6], above 10 µM. Also, the AC50 in experiment [7] is above 30 µM.

As to `Cc1cnc(C(=O)NCCc2ccc(S(=O)(=O)NC(=O)NC3CCCCC3)cc2)cn1` [GLIPIZIDE], the AC50 was above 30 µM in experiment [1]; above 30 µM in experiment [8]; above 10 µM in experiment [3]; above 30 µM in experiment [4]; above 30 µM in experiment [5]; above 10 µM in experiment [6]. Besides, the AC50 in experiment [7] was above 30 µM.

Take `Cc1cc(C(C)(C)C)cc(C)c1CC1=NCCN1` [XYLOMETAZOLINE]: the AC50 in experiment [1], in experiment [8], in experiment [2], in experiment [3], in experiment [5] and in experiment [6] was above 30 µM throughout. The AC50 in experiment [7] is above 30 µM.

In the case of `CN(C)CCCNc1c2ccccc2nc2cccc([N+](=O)[O-])c12` [NITRACRINE], the concentration at half-maximal activity (AC50) is above 30 µM in experiment [1]; 21 µM in experiment [8]; above 30 µM in experiment [2]; 19 µM in experiment [3]; above 30 µM in experiment [5]; above 30 µM in experiment [6]. The AC50 in experiment [7] was above 30 µM.

As for `CC(C)COCC(CN(Cc1ccccc1)c1ccccc1)N1CCCC1` (stereo not given) [BEPRIDIL], the concentration at half-maximal activity (AC50) in experiment [1] is 22.1 µM; in experiment [8] it was above 30 µM; in experiment [2], above 30 µM; in experiment [3] it was above 30 µM; in experiment [4], above 30 µM; in experiment [7] it was above 30 µM.

In the case of `CCC(C)C(CC)C(N)=O` (stereo not given) [VALNOCTAMIDE], the half-maximal activity concentration (AC50) in experiment [1], in experiment [8], in experiment [2], in experiment [3], in experiment [5] and in experiment [6] was above 30 µM each time. Also, in experiment [7], the AC50 was above 30 µM.

A word on the AC50: it is the concentration giving half of the maximal activity seen.
